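Where inhibition never reached the appropriate level, the endpoint shown equals the highest concentration tested. Otherwise, values were interpolated linearly from a five-concentration, 48-hour dose response in 96-well plates. TGI marks complete inhibition of growth.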
Legend:
Test in all cases: NCI anticancer screen, dose series, 48 h
DLD-1 colon = tested on: DLD-1 colon
DMS 273 small cell lung = tested on: DMS 273 small cell lung
KM20L2 colon = tested on: KM20L2 colon
M19-MEL melanoma = tested on: M19-MEL melanoma
RXF-631 renal = tested on: RXF-631 renal
SNB-78 CNS = tested on: SNB-78 CNS
XF 498 CNS = tested on: XF 498 CNS

Row | Structure (SMILES) | TGI (DLD-1 colon) [µM] | TGI (DMS 273 small cell lung) [µM] | TGI (KM20L2 colon) [µM] | TGI (M19-MEL melanoma) [µM] | TGI (RXF-631 renal) [µM] | TGI (SNB-78 CNS) [µM] | TGI (XF 498 CNS) [µM]
1 | C=C(CN(C)C)C(=O)c1ccccc1Cl | 36.3 | 36.8 | > 60.4 | 33.4 | 37.8 | 83.1 | 
2 | OC1CCSc2ccccc21 (stereo not given) | > 100 | > 100 | > 100 | > 100 |  |  | > 100
3 | CC(C)C(=O)CC(c1ccc(Br)cc1)N1N=C(C(C)C)CC1c1ccc(Br)cc1 (stereo not given) |  | > 100 | > 100 | > 100 |  |  | 59
